row,SMILES,melting point [°C]
1,C[C@H](c1ccccc1)N1C(=O)c2c(F)c(F)c(F)c(F)c2C1=O,95.5 to 96
2,CC(=O)Nc1cccc(-c2cnc(N(C)C)nc2)c1,183 to 188
3,CNC(=O)Oc1ccc2c(c1)c1c(n2C)C2(CC1)CCN(C(=O)c1ccccc1)CC2,189 to 190
4,CCOC(=O)c1cc(C)n(-c2cccc(C(C)=O)c2)c1-c1ccccc1,100 to 102
5,FC(F)(F)c1cc(-c2ccc(Cl)c(Cl)c2)nc2ccnn12,130 to 131
6,Cc1noc2nc(-c3ccccc3)cc(O)c12,281 to 282
7,COc1ccc(-c2ccc3nnn(Cc4ccc5ncccc5c4)c3n2)cc1OC,149 to 152
8,CCCCC(=O)Nc1ccc(C(=O)CCC(=O)O)cc1,153 to 155
9,CC(O)CN(CC(C)O)c1cc(C(C)(C)C)cc(C(C)(C)C)c1 (stereo not drawn),139
10,Cc1cc2c(cn1)c(C#N)c(-c1ncc(S(=O)(=O)NC(C)C)cn1)n2C1CCC1,242 to 243
11,CC(=O)c1ccc(C(=O)N(C)C)o1,101 to 104
12,CC(=O)NCCc1c(C(F)(F)F)nn2ccc3c(c12)CCO3,196 to 198
13,O=C1Nc2cc3c(cc2C12COc1cc4c(cc12)CCO4)OCCO3 (stereo not drawn),> 250
14,O=C(NCC1CCN(C[C@H]2COc3ccc(Cl)cc3O2)CC1)c1cccc2cccnc12,51 to 54
15,OC1(C#Cc2ccc(Br)cn2)CN2CCC1CC2 (stereo not drawn),194 to 198
16,COC(=O)[C@@H]1CCN1S(=O)(=O)c1ccc(Cl)c(CBr)c1Cl,150
17,CC(=O)c1c(C)[nH]c(CC(C)C)c1C,150 to 152
18,Cc1oc2cc(C3CC(=O)NC(=O)C3)ccc2c1C,252 to 254
19,CCC(=C(c1ccccc1)c1ccc(C=CC(=O)N(CC)CC)cc1)c1ccccc1,138 to 140
20,CN(c1cccc2cc(-c3ncc(CCC(=O)N4CCOCC4)s3)[nH]c12)S(=O)(=O)c1cccs1,160 to 161
21,CC(C)(C)c1ccc(N(c2ccc(-c3ccc(Nc4ccccc4)cc3)cc2)c2ccc(C(C)(C)C)cc2)cc1,161 to 162
22,CCNCC1CCN(c2cc3c(cc2Cl)c(=O)c(C(=O)O)cn3C2CC2)C1 (stereo not drawn),> 310
23,O=C1CC2(CCNCC2)c2cc(Br)ccc2N1,218
24,Cc1nc2cc(C(c3cccc(Cl)c3)n3ccnc3)ccc2[nH]1 (stereo not drawn),117
25,O=CN(O)C(CO)CS(=O)(=O)c1ccccc1Sc1ccc(Cl)cc1 (stereo not drawn),148 to 150

row,SMILES,melting point [°C]
1,Cc1ccc(S(=O)(=O)CNc2ccc(C(F)(F)F)cc2)cc1,135
2,O=C1CCC(N2Cc3c(CNC(=O)NC4CCCCC4)cccc3C2=O)C(=O)N1 (stereo not drawn),309 to 311
3,O=C1c2ccccc2C(=O)N1Cc1ccc(C2=COC(c3cc(Cl)cc(Cl)c3)(C(F)(F)F)C2)cc1Cl (stereo not drawn),99.7
4,NC1=Nc2cc(Cl)ccc2Nc2cscc21,239 to 240
5,CCOC(=O)c1c(CN2CCCCC2)nc2cc(OC)c(OC)cc2c1-c1ccc(OC)cc1,129 to 130
6,CC(C)=NNc1cnn(-c2cccc(C(F)(F)F)c2)c(=O)c1,255 to 257
7,COc1cc(C(=O)O)c2oc(-c3ccccc3)cc2c1,185 to 187
8,CC(C)C[C@@H](C(=O)O)N1C(=O)NC(C(F)(F)F)(C(F)(F)F)C1=O,154 to 156
9,O=[N+]([O-])c1cccc(-c2cc(Cc3ccc(F)cc3)cc(/C=N/O)c2O)c1,157 to 159
10,O=C(Cn1cc(-c2ccccc2)cc(NC(=O)OCc2ccccc2)c1=O)NC(Cc1ccccc1)C(=O)C(F)(F)F (stereo not drawn),147 to 151
11,O=C(c1nccs1)c1cnn2c(-c3ccncc3)ccnc12,323 to 325
12,CCOP(=O)(Cc1ccc(NC(=O)CCc2conc2-c2ccc(Cl)cc2)cc1)OCC,88 to 90
13,CSc1nc(Cl)ncc1C,73 to 76
14,COC(=O)C1=Cc2cc(OCc3ccc(F)cc3)ccc2S(=O)(=O)CC1,141 to 143
15,Cn1c(C(F)(F)F)cc(=O)n(-c2cc(S)c(Cl)cc2F)c1=O,132
16,O=C(c1ccccc1)c1ccc(Nc2ccccc2NC(=O)C(F)(F)F)cc1,187 to 191
17,NS(=O)(=O)NC(=O)CCCCC1CCSS1 (stereo not drawn),141 to 142
18,CCC1(CC)C(=O)N(C(C)(C)C)CC(C)(C)N1OC(C)c1ccc(CCl)cc1 (stereo not drawn),66 to 68
19,Nc1cnc2c(F)c(Cl)c(F)cc2c1,270
20,Cc1c(NN)nc(N)nc1-c1ccco1,155 to 160
21,CON=CC1=CCCN(C(=O)Oc2ccc(C(C)(C)CC(C)(C)C)cc2)C1,91 to 93
22,c1ccc(COc2cccc(Nc3nnc(Cc4ccncc4)c4ccccc34)c2)cc1,142 to 143
23,COc1ccccc1-n1c(-c2cc(-c3ccc(S(C)(=O)=O)cc3)c(N3CCOCC3)s2)nc2ccccc2c1=O,222 to 223
24,CC(=O)Nc1cc(/C=C/C(=O)NCC(=O)N(C)c2ccc(Cl)c(COc3cccc4ccc(C)nc34)c2Cl)ccn1,115 to 131
25,CC(C)NCC(O)COc1nccnc1Cl (stereo not drawn),99 to 100

row,SMILES,melting point [°C]
1,COc1cccc(COc2ccc(N)nn2)c1OC,103 to 106
2,CN(C)C=Nc1c(Cl)cc(N=Cc2cccc(F)c2)cc1Cl,95 to 96
3,COc1ccc2oc3ccccc3c2c1C(=O)Nc1cc(Cl)ccc1Cl,202
4,Cc1oc(-c2ccco2)nc1COc1ccc(COc2nn(Cc3ccccc3)cc2C=O)cc1,118 to 119
5,COCCCn1c2cc(C)ccc2n2c(C)nnc12,113 to 114
6,CCCc1c(COc2ccc3c(=O)cc(C(=O)O)oc3c2CCC)ccc(C(C)=O)c1O,195 to 205
7,COc1ccc(NC(=O)C(=O)c2c3n(c4ccccc24)CCNCC3)cc1,177 to 180
8,CC(=O)ONC(=N)c1ccc(-c2ccc(-c3ccc(C(=N)NOC(C)=O)cc3C)o2)nc1,226 to 229
9,CC(C)c1ccc(N(C)C(=O)Cn2cnc3[nH]c(=O)n(C)c(=O)c32)cc1,271 to 273
10,Cc1cc(C2=NCCO2)cc(C)c1O,184 to 186
11,CCOC(=O)N1CCN(c2c(-c3ccccc3)sc3ccccc23)CC1,115 to 116
12,O=C(COc1ccccc1)NC1C(=O)NC1SCC(=O)C1CCCS1 (mixture of isomers),123
13,Cc1cccc2c1C(=O)N(CO)S2(=O)=O,196 to 198
14,COc1ccc(C(C#Cc2ccccc2)Cc2nnc(C)o2)cc1OC1CCCC1 (racemic),105 to 106
15,OC(=S)c1cccnc1,84 to 86
16,COc1ccc(N(C(=O)c2c3ccccc3nc3ccccc23)S(=O)(=O)c2ccc(CCC(=O)ON3C(=O)CCC3=O)cc2)c(OC)c1,105
17,CCOC(=O)CS(=O)(=O)c1ccc(C=C(C)c2ccc3c(c2)C(C)(C)CCC3(C)C)cc1,117 to 118
18,Cc1ccc(Cc2cnc(NCCCCNc3ccccn3)[nH]c2=O)cn1,184
19,O=C(Nc1ccccc1)C1=C(Nc2ccc(Cl)cc2)COC1=O,209 to 210
20,CC(=O)Nc1nc(-c2ccc([N+](=O)[O-])cc2)c(C)[nH]1,230 to 235
21,Cc1c(C)c2c(c(C)c1O)CCC(C)(C(=S)N1CCN(c3ccc(Cl)cc3)CC1)O2 (stereo not drawn),154 to 155
22,C=CCN1CCc2c([nH]c3ccccc23)C(C(=O)OC)C1 (stereo not drawn),105 to 108
23,COCC(C)Oc1cc(Oc2ccc(S(C)(=O)=O)cc2)cc2cc(C3=NCC(C(OC)OC)S3)[nH]c12 (stereo not drawn),109 to 112
24,N#Cc1cc(-c2ccncc2)c[nH]c1=O,> 300
25,COc1ccc(C#N)cc1/C=C/C(=O)N[C@H](CO)CN1CCC(C(=O)c2ccc(Cl)cc2)CC1,162 to 163

row,SMILES,melting point [°C]
1,CCCCCC(=O)NC(Cc1cnc(SCCC)n1Cc1ccccc1Cl)C(=O)O (stereo not drawn),118 to 121
2,CCCc1nc(Cl)c(C(=O)O)n1Cc1ccc(C2(C(=O)O)CC=CC2)s1,170 to 172
3,COc1cc2c(cc1OC)C1C(CO)CSC(C=N)N1CC2 (stereo not drawn),149 to 151
4,CC(C)(C)CNc1cc(Cl)nc(N2CCCC2)n1,130 to 135
5,O=c1[nH]c(=O)n(C2CC(F)C(COC(c3ccccc3)(c3ccccc3)c3ccccc3)O2)cc1C(I)=CI (stereo not drawn),58
6,CNC=C1C(=O)C(C)(C)OC1(C)C,80 to 82
7,CONC(=N)c1nn(-c2c(Cl)cc(C(F)(F)F)cc2Cl)c(N)c1S(C)=O (stereo not drawn),169 to 170
8,O=C(O)COc1cccc2c(CCS(=O)(=O)C(c3ccccc3)c3ccccc3)coc12,177 to 179
9,COc1ncccc1C(=O)NCCc1ccc(CC(=O)O)cc1,157 to 158
10,CCC(=O)N1Cc2cn(C)nc2-c2cc(Cl)ccc21,137 to 138
11,Cc1cc(C)nc(N(C=O)c2ccccc2)n1,134 to 135
12,O=C(O)CCC/C=C\C[C@H]1[C@@H]2CC[C@@H](C2)[C@@H]1NC(=O)c1ccc(S(=O)(=O)n2cccc2)s1,113 to 114
13,Cc1ccc(-c2ccc(Cl)c(C(=O)O)n2)cc1C(=O)NCC1CCCCCC1,177 to 178
14,CCCCCCCCCCCCCCCC(CC)OCC(=O)c1ccccc1 (stereo not drawn),50 to 52
15,COC(=O)c1ccc(NC(=O)c2cc(C(C)C)c(C(C)C)s2)cc1OC,172 to 173
16,CCCSC(C)(C(=O)O)c1ccc2oc(Cc3nc(-c4ccccc4)oc3C)cc2c1 (stereo not drawn),169 to 170
17,CCCCC(OC(=O)c1ccccc1)P(=O)(O)OC(CCCCN)C(=O)N1CCCC1C(=O)O (stereo not drawn),158 to 170
18,CCOC(=O)C1CNc2cc(NS(C)(=O)=O)ccc2O1 (stereo not drawn),149 to 151
19,COc1cc(-c2ncn(CCO)c2-c2ccc(C(F)(F)F)cc2)cc(OC)c1OC,208 to 210
20,O=C(Oc1ccc(-c2cc3ccc(OC(=O)c4ccccc4)cc3s2)cc1)c1ccccc1,216 to 218
21,CCOC(=O)C(=O)Nc1c(C)cc(C(F)(F)F)cc1[N+](=O)[O-],118 to 120
22,NC1CCC(CC2CCC(Nc3ncc4ncnc(Nc5ccc(F)c(Cl)c5)c4n3)CC2)CC1 (stereo not drawn),164 to 166
23,O=[N+]([O-])c1ccc(OCCCO)cc1CS(=O)(=O)c1cccc2ccccc12,134 to 135
